Measured values reported in PubChem BioAssay AID1902 (Broad Institute, 2009).
Active and inactive are the calls of the source.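 How the source made its calls: active means EC50 no more than a set limit of log units above the highest dose; inactive means the rest.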

Molecular target: S. pyogenes SKKanGAS, kanamycin survival, BacTiterGlo, 6 h
Assay: SKKanGAS survival reduction under kanamycin, dose response, streptokinase promoter inhibitor project, SKKanGAS strain, luminescence, dose confirmation (AID 1902);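 further: lower survival reflects blocked streptokinase promoter driving kanamycin resistance gene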

SMILES | EC50
O=[N+]([O-])c1ccc(-c2nc(Nc3cccc(O)c3)c3ccccc3n2)cc1 | 10.7 µM
CCn1cc(CN2CCC(C(=O)Nc3ccc(Oc4cccnc4)cc3)CC2)cn1 | > 15 µM (inactive)
O=C(CCCN1C(=O)/C(=C\c2cccs2)SC1=S)Nc1cc([N+](=O)[O-])ccc1O | 5.04 µM
O=C(NC(NC(=S)Nc1cccc(Cl)c1)C(Cl)(Cl)Cl)OCc1ccccc1 (configuration not stated) | 1.78 µM
CC(C)c1ccc2[nH]c(O)c(N=NC(=O)c3cccc(S(=O)(=O)N4CCCCC4)c3)c2c1 | 7.1 µM
O=C(c1cc(-c2ccccc2)n[nH]1)N1CCc2c([nH]c3ccccc23)C1c1ccccn1 (configuration not stated) | 5.23 µM
Cc1ccc2sc(NNC(=O)c3ccc4c(c3)OCCO4)nc2c1C | 3.79 µM
Cc1ccc(C(C)C)c(OCc2ccc(C(=O)N/N=C/c3cccc(O)c3O)cc2)c1 | 5.66 µM
Cc1cc2oc(=O)cc(CNc3ccccc3F)c2cc1O | 10.2 µM
COC(=O)C(Nc1ccccc1Cl)(c1cc(C)c(O)c(C)c1)C(F)(F)F (configuration not stated) | 2.5 µM
CC(=O)OCC1=C(C(=O)O)N2C(=O)C(NC(=O)C(C)Cn3cc(Cl)cn3)C2SC1 (configuration not stated) | 1.96 µM
Cc1ccccc1C(=O)NNC(=S)NC(=O)c1cccs1 | 2.31 µM
Cc1ccc(-c2nn(CCC(=O)O)cc2/C=C\C(=O)c2ccc(Br)cc2)cc1 | 6.54 µM
Cc1ccc(OCCn2c(=S)[nH]c3ccccc32)c(C(C)C)c1 | 2.13 µM
Cn1c(=O)c(NCCc2ccccc2)c2c3c(cccc31)C(=O)c1ccccc1-2 | 8.86 µM
Cc1cccc(NC(=O)C2SC(=Nc3c(C)cccc3C)C(C(=O)N3CCOCC3)=C2N)c1 (configuration not stated) | 2.44 µM
CCc1ccc(OCC(=O)NNC(=S)NC(=O)C2CCCCC2)c(Br)c1 | < 0.06 µM
Cc1noc(C)c1C(=O)Nc1ccc2ccccc2c1 | > 15 µM (inactive)
COc1ccc(/C=N/NC(=O)Cc2csc(Nc3cccc(C(F)(F)F)c3)n2)cc1C | 3.95 µM
CCCC1=NN2C(=N)/C(=C\c3cc(C)n(-c4cc(C)cc(C)c4)c3C)C(=O)N=C2S1 | 1.83 µM
COc1ccc2nc(-n3c(C)ccc3C)sc2c1 | > 15 µM (inactive)
CCN(CC)CCN(C(=O)CCS(=O)(=O)c1ccccc1)c1nc2cc(C)cc(C)c2s1 | > 15 µM (inactive)
Cc1cc(/C=C2\SC(=S)NC2=O)c(C)n1-c1ccc(O)cc1 | 1.1 µM
CCn1nc(-c2ccccc2)nc2c(=O)n(C)c(=O)nc1-2 | 1.54 µM
CCC1CCCCN1S(=O)(=O)c1ccc(NC(=O)c2nc(S(C)(=O)=O)ncc2Cl)cc1 (configuration not stated) | 9.42 µM
CCNC(=O)c1c(NC(=O)c2cc(-c3cc(C)ccc3O)n[nH]2)sc2c1CCCC2 | 2.44 µM

SMILES | EC50
CN1C(=O)NC(c2ccccc2)(C(F)(F)F)S/C1=C(/C#N)c1nnc(N2CCOCC2)n1-c1ccccc1 (configuration not stated) | > 15 µM (inactive)
COc1cc(OC)cc(-c2cc3nc4c(c(N5CCN(c6ncccn6)CC5)n3n2)CCCC4)c1 | 6.28 µM
O=C(Nc1nc2ccccc2[nH]1)c1cccc(Cl)c1 | 10.4 µM
CC(=O)O[C@H]1C[C@@]2(C)[C@@H](C[C@@H](O)[C@H]3[C@@]4(C)CC[C@@H](O)[C@@H](C)[C@@H]4CC[C@@]32C)/C1=C(\CCC=C(C)C)C(=O)O | 0.177 µM
COc1cccc2sc(Nc3nnc(-c4ccc(F)cc4)o3)nc12 | 0.546 µM
CCOC(=O)C1CCN(C(=O)c2ccc3c(=O)n4nc(Nc5cc(C)ccc5C)sc4nc3c2)CC1 | 8.2 µM
O=C(COc1cccc(Oc2ccccc2)c1)Nc1ccc(SC(F)F)cc1 | 13 µM
COc1ccc(-c2ncn(CCC#N)c2[N+](=O)[O-])cc1 | 2.72 µM
O=c1cc(-c2ccccc2)[nH]n1-c1nc2ccccc2s1 | 2.72 µM
FC(F)(F)c1cccc(Nc2nc(N3CCCC3)nc(N3CCCC3)n2)c1 | 2.23 µM
CCc1ccc(/C=C2/SC(=S)N(CC(=O)Nc3nc4ccccc4s3)C2=O)cc1 | 2.52 µM
COc1cccc(-c2nc(N3CC(C)CC(C)C3)c3ccccc3n2)c1O (configuration not stated) | 3.05 µM
O=C(Cc1ccc(Br)cc1)Nc1nc2ccccc2[nH]1 | 4.55 µM
CCOC(=O)c1c(NC(=O)CCS(=O)(=O)c2ccccc2)sc2c1CCN(C)C2 | > 15 µM (inactive)
CCCCN(CCCC)C(=S)N/N=C/c1c(C)[nH]n(-c2ccccc2)c1=O | 0.399 µM
CC(C)C[C@H](NC(=O)c1[nH]cnc1C(=O)N[C@@H](Cc1ccccc1)C(=O)OC(C)(C)C)C(=O)OC(C)(C)C | 2.1 µM
Cc1ccc(SC/C(O)=C(\C#N)c2nc3ccccc3s2)cc1 | 2.83 µM
C/C(=N/Nc1cc(-c2ccccc2)nc(-c2ccccc2)n1)c1ccc(O)cc1 | 2.08 µM
CCc1nc(SCC(=O)Nc2ccccc2OC)c2c(C)c(C)sc2n1 | 6.58 µM
CCC(C(=O)N1CCC(N2CCCCC2)CC1)n1nc(C)c2sc3ccccc3c2c1=O (configuration not stated) | > 15 µM (inactive)
COc1ccc(NC(=O)c2cccc(-c3ccc(O)cc3)c2)cn1 | 13 µM
CCCCCCCC(=O)NNC(=O)c1c(O)c2ccccc2n(CC)c1=O | 1.3 µM
CC(C)CC(=O)NC(=S)NNC(=O)c1ccc(NC(=O)C2CCCCC2)cc1 | 0.546 µM
Cc1cccc(C(=O)NC(C(=O)Nc2nc(-c3ccccn3)cs2)C(C)C)c1 (configuration not stated) | 5.46 µM
COc1ccc(CC(=O)N/N=C/c2cc([N+](=O)[O-])cc(Br)c2O)cc1 | 4.91 µM
O=C(N/N=C/c1ccccc1O)c1ccc2c(c1)OCO2 | 2.76 µM
